Measurements: patent US20240301408A1, “MICRORNA 195 COMPOSITIONS AND METHODS FOR TREATING COGNITIVE IMPAIRMENT” (UNITED STATES GOVERNMENT AS REPRESENTED BY THE DEPARTMENT …, priority 2021, published 2024)

Legend:
[1] = test system: synj1; test: brain synj1 mRNA and protein levels in ApoE KI mice after miR-195 over-expression; type: in vivo, mouse
Description: Stereotaxic injection and behavior studies. Eight to nine weeks old male and female ApoE3^+/+ and ApoE4^+/+ KI mice without 5×FAD background (N=19-23/group), or with 5×FAD background (N=15-17/group) were placed in the stereotaxic apparatus with AAV2 or scramble virus administered into the dorsal CA1 regions of bilateral hippocampal brain regions using pressure injection (Labonte B et al., Nat Med 2017, and Passini M A et al., The Journal of neuroscience 2006). Injection volumes (0.5-2.0 μl) were delivered over 10 min to avoid tissue damage. Six to nine months after viral delivery, mice were tested with the NOR task (Zhu L et al., Proc Natl Acad Sci USA 2015, Elder G A et al., J Neurotrauma 2012, and Howlett D R et al., Brain Res 2004). Mice were randomized for genotype and sex, and blinded throughout the behavior data collection and analysis, surgical manipulations, and sample collection.
Brain and neuronal sample preparation and biochemical analysis. Snap-frozen mouse hemi-brains or cultured neurons were harvested in lysis buffer (Lane R F et al., The Journal of neuroscience 2010) and processed via step-wise solubilization (Lane R F et al., The Journal of neuroscience 2010, and Kawarabayashi T et al. The Journal of neuroscience 2001) followed by SDS-PAGE to determine levels of synj1, dyn1, holoAPP, and CTFs. Levels of Aβ42, Aβ40, pTau, Tau and ApoE were determined using high-sensitive ELISA kits. Some tissue was used for miRNA and RNA extraction followed by qPCR and RNA-seq analysis. […]
(§1) Statistical analysis. […] Levels of miR-195-5p and miR-374 were normalized to U6 and RNU6B (internal controls) while synj1 mRNA normalized to GAPDH and 18s, and then expressed as Log2fold of changes when compared to controls. Levels of synj1, dyn1, pTau, Tau, and holoAPP were normalized to β-actin levels and expressed as a percentage of the control. Absolute Aβ42, Aβ40, pTau, Tau, and ApoE concentrations were quantitatively determined by ELISA and expressed as a percentage of the control. […] Pearson correlation coefficients were calculated to determine the linear relationship between the two variables. […]

[2] = test system: lysosomes of ApoE4+/+ / ApoE3+/+ neurons; test: lysosome size and number (Lysotracker, confocal) in neurons of iPSC-derived neuron and astrocyte co-culture; type: cell-based, human
Description: Mouse Neuronal and human iPSC culture. Primary cortical neurons were cultured (Zhu L et al., Proc Natl Acad Sci USA 2015, and Zhu L et al., J Biol Chem 2013) before being fixed and stained for confocal microscopy analysis (Zeiss LSM) (Berg I et al., Nat Protoc 2010). In some conditions, bovine serum albumin (BSA) or receptor-associated protein (RAP) was included in the cultured media (N=3/group). Alternatively, cultured neurons were transfected with adeno-associated virus 2 (AAV2)-containing miR-195-5p or miR-374 or scramble controls for 5 days before subjected to analysis. The ApoE4^+/+ and ApoE3^+/+ iPSCs were differentiated into neural progenitor cells (NPCs) by dual SMAD inhibition followed by neural rosette selection and forebrain-specific patterning by 20 ng/ml FGF2 exposure (Bowles K R et al., PloS one 2019, and Tcw J et al., Stem cell reports 2017). These NPCs were purified by MACS for CD271^−/CD133^+ (Bowles K R et al., PloS one 2019) and differentiated to cortical neurons (Bardy C et al., Proc Natl Acad Sci USA 2015, and Paquet D et al., Nature 2016) and a homogeneous population of astrocytes (Tcw J et al., Stem cell reports 2017, and Shaltouki A et al., Stem Cells 2013) before subjected to viral transfection and confocal microscopy analysis. Alternatively, mouse cortical neurons derived from ApoE4^+/+ and ApoE3^+/+ KI mice with synj1^+/+ or synj1^−/− genotypes were co-cultured with ApoE4^+/+ and ApoE3^+/+ iPSC-derived pure astrocytes. In some experiments, cultured neurons were transfected with AAV2-containing miR-195-5p, scramble controls or miR195 inhibitors that specifically prevent miR-195-5p binding to its target mRNA before co-culturing with iPSC-derived astrocytes. Cultured iPSC-derived neurons and astrocytes were then incubated with lysotracker red for various time periods before fixation and double-stained for pTau and a nuclear marker DAPI (blue) for confocal microscopy analysis (Zeiss). N=4-5/condition.

[3] = test system: phospho-Tau (pTau); test: brain pTau levels in ApoE KI mice after miR-195 over-expression; type: in vivo, mouse
Description: (§2) Stereotaxic injection and behavior studies. Eight to nine weeks old male and female ApoE3^+/+ and ApoE4^+/+ KI mice without 5×FAD background (N=19-23/group), or with 5×FAD background (N=15-17/group) were placed in the stereotaxic apparatus with AAV2 or scramble virus administered into the dorsal CA1 regions of bilateral hippocampal brain regions using pressure injection (Labonte B et al., Nat Med 2017, and Passini M A et al., The Journal of neuroscience 2006). Injection volumes (0.5-2.0 μl) were delivered over 10 min to avoid tissue damage. […]
(§3) Brain and neuronal sample preparation and biochemical analysis. […] Levels of Aβ42, Aβ40, pTau, Tau and ApoE were determined using high-sensitive ELISA kits. […]
as §1

[4] = test system: dynamin 1 (dyn1); test: dynamin 1 protein levels in cultured neurons after AAV2 miRNA over-expression; type: cell-based, mouse; settings: neurons over-expressing miRNA; N=4/group
Description: Mouse Neuronal and human iPSC culture. Primary cortical neurons were cultured (Zhu L et al., Proc Natl Acad Sci USA 2015, and Zhu L et al., J Biol Chem 2013) before being fixed and stained for confocal microscopy analysis (Zeiss LSM) (Berg I et al., Nat Protoc 2010). In some conditions, bovine serum albumin (BSA) or receptor-associated protein (RAP) was included in the cultured media (N=3/group). Alternatively, cultured neurons were transfected with adeno-associated virus 2 (AAV2)-containing miR-195-5p or miR-374 or scramble controls for 5 days before subjected to analysis. […]
as §3, §1

[5] = test system: holo-APP or BACE-1; test: brain holo-APP and BACE-1 levels in EFAD mice after miR-195-5p over-expression; type: in vivo; settings: EFAD mouse brains
Description: as §2, §3, §1

[6] = test system: pTau, total Tau; test: brain pTau and total Tau in EFAD mice after miR-195-5p over-expression; type: in vivo; settings: ApoE4+/+ FAD mouse hippocampus
Description: as §2, §3, §1

UAGCAGCACAGAAAUAUUGGC (chemistry not given here) [miR-195-5p, over-expressed via AAV2-containing miR-195-5p from ABM Inc]
synj1 mRNA and protein levels ([1]; ApoE3+/+ mouse brains): Trends of reduction | synj1 mRNA ([1]; ApoE4+/+ mouse brains, scramble controls 0.52): −1.29 Log 2FC | synj1 protein ([1]; ApoE4+/+ mouse brains, scramble controls 77.7): 56.4 % of control | lysosomal phenotypes compared to baseline ([2]; ApoE3+/+ neurons): No significant differences | neurons with lysosome diameter between 0 to 10 μm ([2]; ApoE4+/+ neurons): 53.3% | neurons with >10 lysosomes/cell ([2]; ApoE4+/+ neurons, baseline 18.4%): 1.7% | pTau levels ([3]; ApoE3+/+ mice): Trends of reduction | brain phospho-Tau (pTau) levels ([3]; ApoE4+/+ KI mouse hippocampus, scramble controls 81.3): 39.1 % of controls | dyn protein levels [4]: 97.7 % of controls | holo-APP or BACE-1 levels [5]: no significant changes | p-Tau [6]: reduction
